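All cell lines were grown in 96-well plates and treated with compound for 48 hours. GI50 = concentration required for 50% inhibition of growth. TGI marks complete inhibition of growth.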
Experiments:
Test in all cases: growth of human tumour cells (NCI), 48 h
T-47D breast = test system: T-47D breast
SK-OV-3 ovarian = test system: SK-OV-3 ovarian
HCC-2998 colon = test system: HCC-2998 colon
OVCAR-8 ovarian = test system: OVCAR-8 ovarian
CAKI-1 renal = test system: CAKI-1 renal
A498 renal = test system: A498 renal
RPMI-8226 leukemia = test system: RPMI-8226 leukemia
CCRF-CEM leukemia = test system: CCRF-CEM leukemia
NCI-H226 lung = test system: NCI-H226 lung
SN12C renal = test system: SN12C renal
SK-MEL-5 melanoma = test system: SK-MEL-5 melanoma
DU-145 prostate = test system: DU-145 prostate
MOLT-4 leukemia = test system: MOLT-4 leukemia
HOP-92 NSCLC = test system: HOP-92 NSCLC
SF-295 CNS = test system: SF-295 CNS
BT-549 breast = test system: BT-549 breast
SF-539 CNS = test system: SF-539 CNS
SK-MEL-2 melanoma = test system: SK-MEL-2 melanoma
PC-3 prostate = test system: PC-3 prostate
HCT-116 colon = test system: HCT-116 colon
786-0 renal = test system: 786-0 renal
HS 578T breast = test system: HS 578T breast
MDA-MB-435 = test system: MDA-MB-435
SF-268 CNS = test system: SF-268 CNS
SNB-75 CNS = test system: SNB-75 CNS
NCI/ADR-RES ovarian = test system: NCI/ADR-RES ovarian
MCF7 breast = test system: MCF7 breast
NCI-H522 lung = test system: NCI-H522 lung
NCI-H23 lung = test system: NCI-H23 lung
HCT-15 colon = test system: HCT-15 colon
EKVX NSCLC = test system: EKVX NSCLC
HOP-62 NSCLC = test system: HOP-62 NSCLC
A549 NSCLC = test system: A549 NSCLC
IGROV1 ovarian = test system: IGROV1 ovarian
RXF 393 renal = test system: RXF 393 renal
HT29 colon = test system: HT29 colon
U251 CNS = test system: U251 CNS
SK-MEL-28 melanoma = test system: SK-MEL-28 melanoma
OVCAR-3 ovarian = test system: OVCAR-3 ovarian
OVCAR-4 ovarian = test system: OVCAR-4 ovarian
OVCAR-5 ovarian = test system: OVCAR-5 ovarian
COLO 205 colon = test system: COLO 205 colon
K-562 leukemia = test system: K-562 leukemia
KM12 colon = test system: KM12 colon
MDA-MB-231 breast = test system: MDA-MB-231 breast
NCI-H460 lung = test system: NCI-H460 lung
ACHN renal = test system: ACHN renal
UACC-257 melanoma = test system: UACC-257 melanoma
SW-620 colon = test system: SW-620 colon
UACC-62 melanoma = test system: UACC-62 melanoma
LOX IMVI melanoma = test system: LOX IMVI melanoma
UO-31 renal = test system: UO-31 renal
SNB-19 CNS = test system: SNB-19 CNS
MALME-3M melanoma = test system: MALME-3M melanoma
HL-60(TB) leukemia = test system: HL-60(TB) leukemia

Structure (SMILES): COc1cccc(-c2cc(C(=O)Nc3ccc(/C=C/c4ccc(OC5CCN(C)CC5)cc4)cc3)ccc2OC)c1
- GI50 (T-47D breast): 1.7 µM
- TGI (T-47D breast): 4.98 µM
- GI50 (SK-OV-3 ovarian): 2.1 µM
- TGI (SK-OV-3 ovarian): 5.13 µM
- GI50 (HCC-2998 colon): 1.83 µM
- TGI (HCC-2998 colon): 3.32 µM
- GI50 (OVCAR-8 ovarian): 1.96 µM
- TGI (OVCAR-8 ovarian): 4.59 µM
- GI50 (CAKI-1 renal): 10.6 µM
- TGI (CAKI-1 renal): 45.6 µM
- GI50 (A498 renal): 1.39 µM
- TGI (A498 renal): 3.8 µM
- GI50 (RPMI-8226 leukemia): 2.18 µM
- TGI (RPMI-8226 leukemia): 5.15 µM
- GI50 (CCRF-CEM leukemia): 1.93 µM
- TGI (CCRF-CEM leukemia): 5.14 µM
- GI50 (NCI-H226 lung): 2.07 µM
- TGI (NCI-H226 lung): 5.04 µM

Structure (SMILES): NC(N)=N/N=C\c1ccc(OCc2ccccc2)cc1
- GI50 (SN12C renal): 1.97 µM
- TGI (SN12C renal): 5.35 µM
- GI50 (SK-MEL-5 melanoma): 1.62 µM
- TGI (SK-MEL-5 melanoma): 3.24 µM
- GI50 (DU-145 prostate): 2.71 µM
- TGI (DU-145 prostate): 8.45 µM
- GI50 (MOLT-4 leukemia): 3.36 µM
- TGI (MOLT-4 leukemia): 9.36 µM
- GI50 (HOP-92 NSCLC): 1.05 µM
- TGI (HOP-92 NSCLC): 4.24 µM
- GI50 (T-47D breast): 1.45 µM
- TGI (T-47D breast): 4.22 µM
- GI50 (SF-295 CNS): 2.25 µM
- TGI (SF-295 CNS): 7.02 µM
- GI50 (BT-549 breast): 10.8 µM
- TGI (BT-549 breast): 23 µM
- GI50 (SK-OV-3 ovarian): 3.47 µM
- TGI (SK-OV-3 ovarian): 14.7 µM
- GI50 (SF-539 CNS): 1.7 µM
- TGI (SF-539 CNS): 4.06 µM
- GI50 (HCC-2998 colon): 1.67 µM
- TGI (HCC-2998 colon): 3.2 µM
- GI50 (SK-MEL-2 melanoma): 1.74 µM
- TGI (SK-MEL-2 melanoma): 3.38 µM
- GI50 (PC-3 prostate): 2.41 µM
- TGI (PC-3 prostate): 10.6 µM
- GI50 (HCT-116 colon): 1.51 µM
- TGI (HCT-116 colon): 3.14 µM
- GI50 (786-0 renal): 1.66 µM
- TGI (786-0 renal): 3.17 µM
- GI50 (HS 578T breast): 1.75 µM
- TGI (HS 578T breast): 4.81 µM
- GI50 (MDA-MB-435): 1.68 µM
- TGI (MDA-MB-435): 4.1 µM
- GI50 (SF-268 CNS): 3.47 µM
- TGI (SF-268 CNS): 17.4 µM
- GI50 (CAKI-1 renal): 3.13 µM
- TGI (CAKI-1 renal): 13.4 µM
- GI50 (SNB-75 CNS): 1.64 µM
- TGI (SNB-75 CNS): 4.7 µM
- GI50 (NCI/ADR-RES ovarian): 1.82 µM
- TGI (NCI/ADR-RES ovarian): 4.93 µM
- GI50 (MCF7 breast): 1.37 µM
- TGI (MCF7 breast): 2.91 µM
- GI50 (NCI-H522 lung): 1.52 µM
- TGI (NCI-H522 lung): 3.15 µM
- GI50 (NCI-H23 lung): 9.84 µM
- TGI (NCI-H23 lung): 24.6 µM
- GI50 (HCT-15 colon): 1.97 µM
- TGI (HCT-15 colon): 5.37 µM
- GI50 (EKVX NSCLC): 7.37 µM
- TGI (EKVX NSCLC): 24.2 µM
- GI50 (A498 renal): 2.31 µM
- TGI (A498 renal): 9.7 µM
- GI50 (HOP-62 NSCLC): 2.42 µM
- TGI (HOP-62 NSCLC): 10.5 µM
- GI50 (RPMI-8226 leukemia): 2.02 µM
- TGI (RPMI-8226 leukemia): 5.01 µM
- GI50 (A549 NSCLC): 3.31 µM
- TGI (A549 NSCLC): 13.2 µM
- GI50 (IGROV1 ovarian): 3.42 µM
- TGI (IGROV1 ovarian): 18.3 µM
- GI50 (RXF 393 renal): 1.79 µM
- TGI (RXF 393 renal): 4.26 µM
- GI50 (CCRF-CEM leukemia): 2.73 µM
- TGI (CCRF-CEM leukemia): 10 µM
- GI50 (HT29 colon): 1.87 µM
- TGI (HT29 colon): 3.87 µM
- GI50 (U251 CNS): 1.62 µM
- TGI (U251 CNS): 3.17 µM
- GI50 (SK-MEL-28 melanoma): 1.76 µM
- TGI (SK-MEL-28 melanoma): 3.68 µM
- GI50 (OVCAR-3 ovarian): 2.2 µM
- TGI (OVCAR-3 ovarian): 5.75 µM
- GI50 (OVCAR-4 ovarian): 2.63 µM
- TGI (OVCAR-4 ovarian): 13.8 µM
- GI50 (OVCAR-5 ovarian): 2.95 µM
- TGI (OVCAR-5 ovarian): 15.5 µM
- GI50 (COLO 205 colon): 1.74 µM
- TGI (COLO 205 colon): 3.44 µM
- GI50 (K-562 leukemia): 2.65 µM
- TGI (K-562 leukemia): 5.91 µM
- GI50 (KM12 colon): 1.63 µM
- TGI (KM12 colon): 3.1 µM
- GI50 (MDA-MB-231 breast): 1.96 µM
- TGI (MDA-MB-231 breast): 5.12 µM
- GI50 (NCI-H226 lung): 4.87 µM
- TGI (NCI-H226 lung): 24.2 µM
- GI50 (NCI-H460 lung): 1.77 µM
- TGI (NCI-H460 lung): 3.47 µM
- GI50 (ACHN renal): 2.64 µM
- TGI (ACHN renal): 8.66 µM
- GI50 (UACC-257 melanoma): 1.61 µM
- TGI (UACC-257 melanoma): 3.31 µM
- GI50 (SW-620 colon): 1.64 µM
- TGI (SW-620 colon): 3.3 µM
- GI50 (UACC-62 melanoma): 1.57 µM
- TGI (UACC-62 melanoma): 3.4 µM
- GI50 (LOX IMVI melanoma): 1.53 µM
- TGI (LOX IMVI melanoma): 2.96 µM
- GI50 (UO-31 renal): 2.7 µM
- TGI (UO-31 renal): 17.5 µM
- GI50 (SNB-19 CNS): 3.08 µM
- TGI (SNB-19 CNS): 15.4 µM
- GI50 (MALME-3M melanoma): 2.32 µM
- TGI (MALME-3M melanoma): 6.03 µM
- GI50 (HL-60(TB) leukemia): 2.56 µM
- TGI (HL-60(TB) leukemia): 4.87 µM
